{
  "source": "patent US20230382862A1",
  "about": "“ERG ONCOGENE INHIBITORS” (The Henry M. Jackson Foundation for the Advancement of …, priority 2020, published 2023)",
  "key": {"HUVEC cells": {"system": "HUVEC cells", "assay": "Growth of endothelial-derived primary cells (HUVEC)", "assay_type": "cell-based, human", "conditions": "within effective concentration range observed in VCaP, data not shown", "experimental": "(§1) TMPRSS2-ERG fusion positive ERG oncoprotein expressing prostate cancer cell line VCaP, was obtained from the American Tissue Culture Collection (ATCC; Manassas, Va.). The cells were grown in ATCC-recommended cell culture media under cell growth promoting conditions as recommended by the supplier (DMEM media; Gibco, Grand island, NY) supplemented with 10% fetal bovine serum (ATCC; Manassas, Va.). Normal primary endothelial cells, HUVEC-human umbilical vein endothelial cells, were also obtained from ATCC (Endothelial cell media; Cell biologics, Chicago, Ill.) supplemented with 10% FBS) as recommended by the supplier. The passage number of cell lines used in this study ranges from 1 to 6.\n(§2) ERG protein is naturally expressed in endothelial cells."}, "RIOK2": {"biological_target": "T1, RIOK2 (Homo sapiens, UniProt Q9BVS4)", "T1 construct": "endogenous in cells; host or cells: HUVEC primary endothelial cells (ATCC)", "T1 sequence (Q9BVS4 whole entry)": "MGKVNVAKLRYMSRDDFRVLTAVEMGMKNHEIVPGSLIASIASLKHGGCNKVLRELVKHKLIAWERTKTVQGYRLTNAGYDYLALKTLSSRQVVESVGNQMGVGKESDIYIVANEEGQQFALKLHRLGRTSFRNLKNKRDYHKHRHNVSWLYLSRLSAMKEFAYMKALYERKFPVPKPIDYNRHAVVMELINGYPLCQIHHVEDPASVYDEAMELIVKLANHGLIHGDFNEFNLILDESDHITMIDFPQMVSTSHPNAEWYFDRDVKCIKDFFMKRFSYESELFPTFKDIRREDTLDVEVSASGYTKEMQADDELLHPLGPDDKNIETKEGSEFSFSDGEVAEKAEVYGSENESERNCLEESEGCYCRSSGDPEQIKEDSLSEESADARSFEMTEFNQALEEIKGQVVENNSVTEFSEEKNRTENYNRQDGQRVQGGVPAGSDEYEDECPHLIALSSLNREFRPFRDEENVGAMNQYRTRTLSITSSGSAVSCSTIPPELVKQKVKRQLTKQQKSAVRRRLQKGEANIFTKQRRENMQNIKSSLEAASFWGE", "assay": "RIOK2 levels in endothelial-derived primary cells (HUVEC)", "assay_type": "cell-based", "conditions": "within effective concentration range observed in VCaP, data not shown", "experimental": "as §1, §2"}, "VCaP cells": {"system": "VCaP cells", "assay": "VCaP cell growth inhibition / cell viability (Cell Titer-Glo)", "assay_type": "cell-based", "conditions": "Homo sapiens, 96 h", "protocol": "TMPRSS2-ERG fusion positive ERG oncoprotein expressing prostate cancer cell line VCaP, was obtained from the American Tissue Culture Collection (ATCC; Manassas, Va.). The cells were grown in ATCC-recommended cell culture media under cell growth promoting conditions as recommended by the supplier (DMEM media; Gibco, Grand island, NY) supplemented with 10% fetal bovine serum (ATCC; Manassas, Va.). […] The passage number of cell lines used in this study ranges from 1 to 6.\n48 hours following plating of cells, the appropriate test compound is added to each well of the tissue culture dish at concentrations (0, 0.001, 0.005, 0.01, 0.05, 0.10, 0.15, 0.2, 0.25, 0.3, 0.35, 0.4) μM/per well). The medium was replenished every 24 hours with fresh growth medium containing the same concentration of the same test compound for indicated period of the cell growth inhibition assay for 96 hours. At the end of the treatment the cells were analyzed for viability by labeling for ATPase activity. Cell growth were calculated by measuring bioluminescence using Cell Glow ATPase assay with Cell Titer-Glo luminescent cell viability assay (Promega, Madison, Wis.) detected by the HT Envision System (PerkinElmer, Waltham, Mass.). The average viable cell numbers of each concentration in triplicates were used to calculate the IC50 of each compound with the GraphPad Prism 7 software. […]"}},
  "data": [
    {"smiles": "CN(C)c1ccc(N=Nc2ccccn2)c(O)c1.CS(=O)(=O)O", "note": "[Compound 2, 5-(dimethylamino)-2-(pyridin-2-yldiazenyl)phenol, methanesulfonic acid (1:1)]", "values": [
      {"measurement": "effect on growth of endothelial-derived primary cells", "setting": "HUVEC cells", "value": "did not effect"},
      {"measurement": "effect on RIOK2 levels of endothelial-derived primary cells", "setting": "RIOK2", "value": "did not effect"},
      {"measurement": "IC50", "setting": "VCaP cells", "value": 89, "unit": "nM"}
    ]}
  ]
}
